Assays:
Experiment in all cases: cells
SKMEL24 = details: Homo sapiens, SK-MEL-24, 6 h, read-out: AZD5991 6h EC50
Method: (§1) Cells were plated at 3000 cells/well in 384-well white plates in corresponding cell growth media. […] Caspase-3/7 activation was subsequently determined using a Caspase-Glo 3/7 Reagent (Promega) and viability was assayed using the CellTiter-Glo Reagent (Promega) as described in manufacturer’s instructions. Dose–response curves for caspase-3/7 activation and viability were plotted and analyzed (including EC50 and GI50 determination) using GraphPad Prism. Percentage of caspase activation was calculated against the maximum caspase activation value (100%) obtained with a proprietary cell kill control.

LP1 = details: Homo sapiens, LP-1, 6 h, read-out: AZD5991 6h EC50
Method: as §1

U2932 = details: Homo sapiens, U2932, 6 h, read-out: AZD5991 6h EC50
Method: as §1

MALME3M = details: Homo sapiens, Malme-3M, 6 h, read-out: AZD5991 6h EC50
Method: as §1

Bjab = details: Homo sapiens, 6 h, read-out: AZD5991 6h EC50
Method: as §1

RCK8 = details: Homo sapiens, RCK8, 6 h, read-out: AZD5991 6h EC50
Method: as §1

KG1a = details: Homo sapiens, KG-1a, 6 h, read-out: AZD5991 6h EC50
Method: as §1

A375 = details: Homo sapiens, A-375, 6 h, read-out: AZD5991 6h EC50
Method: as §1

GIST 430/654 = details: GIST-430/654, 6 h, read-out: AZD5991 6h EC50
Method: as §1

OCILY1 = details: Homo sapiens, OCI-Ly1, 6 h, read-out: AZD5991 6h EC50
Method: as §1

H647 = details: Homo sapiens, NCI-H647, 6 h, read-out: AZD5991 6h EC50
Method: as §1

RPMI8226 = details: Homo sapiens, RPMI-8226, 6 h, read-out: AZD5991 6h EC50
Method: as §1

JVM2 = details: Homo sapiens, JVM-2, 6 h, read-out: AZD5991 6h EC50
Method: as §1

LK2 = details: Homo sapiens, LK-2, 6 h, read-out: AZD5991 6h EC50
Method: as §1

U2OS = details: Homo sapiens, 6 h, read-out: AZD5991 6h EC50
Method: as §1

MM1R = details: MM.1R, 6 h, read-out: AZD5991 6h EC50
Method: as §1

Kasumi1 = details: Homo sapiens, Kasumi 1, 6 h, read-out: AZD5991 6h EC50
Method: as §1

DLD1 = details: Homo sapiens, DLD-1, 6 h, read-out: AZD5991 6h EC50
Method: as §1

ML2 = details: Homo sapiens, ML-2, 6 h, read-out: AZD5991 6h EC50
Method: as §1

MM1S = details: Homo sapiens, MM1.S, 6 h, read-out: AZD5991 6h EC50
Method: as §1

Sudhl16 = details: Homo sapiens, SU-DHL-16, 6 h, read-out: AZD5991 6h EC50
Method: as §1

JEKO1 = details: Homo sapiens, JeKo-1, 6 h, read-out: AZD5991 6h EC50
Method: as §1

Karpas620 = details: Karpas-620, 6 h, read-out: AZD5991 6h EC50
Method: as §1

GRANTA519 = details: Homo sapiens, Granta-519, 6 h, read-out: AZD5991 6h EC50
Method: as §1

H322 = details: NCI-H322, 6 h, read-out: AZD5991 6h EC50
Method: as §1

EVSAT = details: Homo sapiens, EVSA-T, 6 h, read-out: AZD5991 6h EC50
Method: as §1

HL60 = details: Homo sapiens, HL-60, 6 h, read-out: AZD5991 6h EC50
Method: as §1

MEWO = details: Homo sapiens, 6 h, read-out: AZD5991 6h EC50
Method: as §1

WM2664 = details: Homo sapiens, WM 266-4, 6 h, read-out: AZD5991 6h EC50
Method: as §1

DMS53 = details: Homo sapiens, DMS-53, 6 h, read-out: AZD5991 6h EC50
Method: as §1

RCPIWM1 = details: 6 h, read-out: AZD5991 6h EC50
Method: as §1

AMO1 = details: Homo sapiens, AMO1, 6 h, read-out: AZD5991 6h EC50
Method: as §1

Raji = details: Homo sapiens, 6 h, read-out: AZD5991 6h EC50
Method: as §1

SKOV3 = details: Homo sapiens, SK-OV-3, 6 h, read-out: AZD5991 6h EC50
Method: as §1

ZR751 = details: Homo sapiens, ZR-75-1, 6 h, read-out: AZD5991 6h EC50
Method: as §1

647V = details: Homo sapiens, 6 h, read-out: AZD5991 6h EC50
Method: as §1

SMILES: Cc1c2c(nn1C)CSCc1cc(n(C)n1)CSc1cc(c3ccccc3c1)OCCCc1c(C(=O)O)n(C)c3c-2c(Cl)ccc13 (atropisomer, axis not shown; (Ra)) [(Ra)-7]
- EC50 (SKMEL24): > 30000 nM
- EC50 (LP1): 249 nM
- EC50 (U2932): 24200 nM
- EC50 (MALME3M): > 30000 nM
- EC50 (Bjab): 47 nM
- EC50 (RCK8): > 30000 nM
- EC50 (KG1a): 1420 nM
- EC50 (A375): > 30000 nM
- EC50 (GIST 430/654): 18600 nM
- EC50 (OCILY1): 547 nM
- EC50 (H647): > 30000 nM
- EC50 (RPMI8226): 76 nM
- EC50 (JVM2): 1030 nM
- EC50 (LK2): > 30000 nM
- EC50 (U2OS): > 30000 nM
- EC50 (MM1R): 120 nM
- EC50 (Kasumi1): 297 nM
- EC50 (DLD1): 29100 nM
- EC50 (ML2): 83 nM
- EC50 (MM1S): 3600 nM
- EC50 (Sudhl16): 139 nM
- EC50 (JEKO1): 512 nM
- EC50 (Karpas620): 122 nM
- EC50 (GRANTA519): > 30000 nM
- EC50 (H322): > 30000 nM
- EC50 (EVSAT): 160 nM
- EC50 (HL60): 656 nM
- EC50 (MEWO): > 30000 nM
- EC50 (WM2664): > 30000 nM
- EC50 (DMS53): > 30000 nM
- EC50 (RCPIWM1): 39 nM
- EC50 (AMO1): 90 nM
- EC50 (Raji): 7400 nM
- EC50 (SKOV3): > 30000 nM
- EC50 (ZR751): > 30000 nM
- EC50 (647V): 26500 nM

Reference: paper PMC6297231 (Nature Communications, 2018)
